Holding throughout (assay): relative viability (nuclei count vs DMSO), 5 days (fraction); higher = more cells survive
Compound in experiment [1]: C1CC(C1)(C(=O)O)C(=O)O.[NH2-].[NH2-].[Pt+2] [Carboplatin] + CC(=O)Nc1cccc(-n2c(=O)n(C3CC3)c(=O)c3c(Nc4ccc(I)cc4F)n(C)c(=O)c(C)c32)c1 [Trametinib] (partner 0.02 µM)
In a few lines: (§1)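 Values are medians from duplicate plates. Each reflects relative viability, defined as the nuclei count of treated wells over that of vehicle wells. Lung cancer cell lines in 1536-well plates were pin-tool dosed one day after seeding with one drug alone or with a fixed anchor-drug dose plus five library-drug doses (not always all listed) in √10 steps, then fixed, stained and imaged at 4× after 5 days.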

Compound in experiment [2]: C1CC(C1)(C(=O)O)C(=O)O.[NH2-].[NH2-].[Pt+2] [Carboplatin] + CS(=O)(=O)N1CCN(Cc2cc3nc(-c4cccc5[nH]ncc45)nc(N4CCOCC4)c3s2)CC1 [Pictilisib] (partner 1 µM)
A digest of the protocol:
as §1

Compound in experiment [3]: CC[C@H](C)N1C=C(C2=C(C=C(C=C21)C3=CN=C(C=C3)N4CCNCC4)C(=O)NCC5=C(C=C(NC5=O)C)C)C [GSK126] + Cc1nc(NC(=O)N2CCC[C@H]2C(N)=O)sc1-c1ccnc(C(C)(C)C(F)(F)F)c1 [Alpelisib] (partner 2 µM)
In a few lines:
as §1

Compound in experiment [4]: NS(=O)(=O)OC[C@@H]1C[C@@H](n2ccc3c(N[C@H]4CCc5ccccc54)ncnc32)C[C@@H]1O [MLN4924] + N=C(N)NC(=N)NCCc1ccccc1 [Phenformin] (partner 250 µM)
A digest of the protocol:
as §1

Consider NCI-H2228, for which the relative viability in experiment [1] (first compound 0.08 µM) worked out at 0.678; in experiment [1] (first compound 0.253 µM) it was 0.575; in experiment [1] (first compound 0.8 µM), 0.616; in experiment [1] (first compound 2.53 µM), 0.543; in experiment [1] (first compound 8 µM), 0.344; in experiment [2] (first compound 0.08 µM) it was 0.547. Moreover, the relative viability in experiment [2] (first compound 0.253 µM) was 0.385; in experiment [2] (first compound 0.8 µM), 0.446; in experiment [2] (first compound 2.53 µM), 0.326; in experiment [2] (first compound 8 µM), 0.312; in experiment [3] (first compound 0.08 µM), 0.848; in experiment [3] (first compound 0.253 µM), 0.52. For the same cell line, the relative viability in experiment [3] (first compound 0.8 µM) came out at 0.691; in experiment [3] (first compound 2.53 µM), 0.99; in experiment [3] (first compound 8 µM), 0.783; in experiment [4] (first compound 0.04 µM), 0.327; in experiment [4] (first compound 0.1265 µM), 0.38; in experiment [4] (first compound 0.4 µM), 0.194. Also, the results for the relative viability in experiment [4] (first compound 1.265 µM) and in experiment [4] (first compound 4 µM) were 0.134 and 0.146, respectively.
For the cell line NCI-H2347, the relative viability amounted to 0.319 in experiment [1] (first compound 0.08 µM); 0.271 in experiment [1] (first compound 0.253 µM); 0.244 in experiment [1] (first compound 0.8 µM); 0.287 in experiment [1] (first compound 2.53 µM); 0.265 in experiment [1] (first compound 8 µM); 0.65 in experiment [2] (first compound 0.08 µM). Besides, the relative viability turned out to be 0.516 in experiment [2] (first compound 0.253 µM); 0.623 in experiment [2] (first compound 0.8 µM); 0.708 in experiment [2] (first compound 2.53 µM); 0.74 in experiment [2] (first compound 8 µM); 1.22 in experiment [3] (first compound 0.08 µM); 0.918 in experiment [3] (first compound 0.253 µM). For the same cell line, the relative viability in experiment [3] (first compound 0.8 µM) turned out to be 1.09; in experiment [3] (first compound 2.53 µM) it was 0.99; in experiment [3] (first compound 8 µM), 0.907; in experiment [4] (first compound 0.04 µM), 0.376; in experiment [4] (first compound 0.1265 µM) it was 0.453; in experiment [4] (first compound 0.4 µM) it was 0.381. Moreover, the relative viability in experiment [4] (first compound 1.265 µM) came out at 0.21; in experiment [4] (first compound 4 µM), 0.302.
Regarding NCI-H2405, the relative viability came to 0.752 in experiment [1] (first compound 0.08 µM); 0.661 in experiment [1] (first compound 0.253 µM); 0.635 in experiment [1] (first compound 0.8 µM); 0.633 in experiment [1] (first compound 2.53 µM); 0.606 in experiment [1] (first compound 8 µM); 0.588 in experiment [2] (first compound 0.08 µM). The relative viability amounted to 0.405 in experiment [2] (first compound 0.253 µM); 0.472 in experiment [2] (first compound 0.8 µM); 0.45 in experiment [2] (first compound 2.53 µM); 0.428 in experiment [2] (first compound 8 µM); 0.774 in experiment [3] (first compound 0.08 µM); 0.664 in experiment [3] (first compound 0.253 µM). The relative viability turned out to be 0.827 in experiment [3] (first compound 0.8 µM); 0.761 in experiment [3] (first compound 2.53 µM); 0.667 in experiment [3] (first compound 8 µM); 0.403 in experiment [4] (first compound 0.04 µM); 0.446 in experiment [4] (first compound 0.1265 µM); 0.362 in experiment [4] (first compound 0.4 µM). The relative viability in experiment [4] (first compound 1.265 µM) amounted to 0.284; in experiment [4] (first compound 4 µM), 0.306.
For the cell line NCI-H3122, the relative viability was determined as 0.227 in experiment [1] (first compound 0.08 µM); 0.259 in experiment [1] (first compound 0.253 µM); 0.251 in experiment [1] (first compound 0.8 µM); 0.251 in experiment [1] (first compound 2.53 µM); 0.226 in experiment [1] (first compound 8 µM); 0.62 in experiment [2] (first compound 0.08 µM). Besides, the relative viability was 0.659 in experiment [2] (first compound 0.253 µM); 0.549 in experiment [2] (first compound 0.8 µM); 0.593 in experiment [2] (first compound 2.53 µM); 0.563 in experiment [2] (first compound 8 µM); 0.827 in experiment [3] (first compound 0.08 µM); 0.854 in experiment [3] (first compound 0.253 µM). Further, the relative viability came out at 0.767 in experiment [3] (first compound 0.8 µM); 0.768 in experiment [3] (first compound 2.53 µM); 0.829 in experiment [3] (first compound 8 µM); 0.315 in experiment [4] (first compound 0.04 µM); 0.274 in experiment [4] (first compound 0.1265 µM); 0.169 in experiment [4] (first compound 0.4 µM). In addition, the relative viability is 0.131 in experiment [4] (first compound 1.265 µM) and 0.136 in experiment [4] (first compound 4 µM).
As to PC-3 [JPC-3], the relative viability was found to be 0.781 in experiment [1] (first compound 0.08 µM); 0.67 in experiment [1] (first compound 0.253 µM); 0.628 in experiment [1] (first compound 0.8 µM); 0.616 in experiment [1] (first compound 2.53 µM); 0.65 in experiment [1] (first compound 8 µM); 0.912 in experiment [2] (first compound 0.08 µM). The relative viability in experiment [2] (first compound 0.253 µM) came to 0.684; in experiment [2] (first compound 0.8 µM), 0.761; in experiment [2] (first compound 2.53 µM), 0.701; in experiment [2] (first compound 8 µM), 0.706; in experiment [3] (first compound 0.08 µM) it was 1.04; in experiment [3] (first compound 0.253 µM) it was 1.13. Also, the relative viability in experiment [3] (first compound 0.8 µM) was determined as 1.05; in experiment [3] (first compound 2.53 µM) it was 1.02; in experiment [3] (first compound 8 µM), 1.07; in experiment [4] (first compound 0.04 µM), 0.482; in experiment [4] (first compound 0.1265 µM), 0.482; in experiment [4] (first compound 0.4 µM), 0.404. In addition, the relative viability came to 0.323 in experiment [4] (first compound 1.265 µM) and 0.341 in experiment [4] (first compound 4 µM).

The record behind these values is the supplement of paper PMC10307832.
